Source: article PMC4706877, “Antibacterial and Cytotoxic Activity of Compounds Isolated from Flourensia oolepis” (Evidence-based Complementary and Alternative Medicine : eCAM, 2015)
≈ marks a conversion by molar mass, not a printed value. Structures can show the parent of a compound that is named as a salt. Where two headings read alike, the source gives them in different places.

Key:
[1] = tested on: Enterococcus faecalis (ATCC 29212); assay: Agar dilution MIC / MBC; assay type: cell-based; details: ATCC29212, E. faecalis; for MIC: agar dilution, 24 h; for MBC: value in parentheses
Experimental: (§1) This isolate was identified by conventional biochemical assays and by the commercial system API20E (bioMérieux SA, Mercy L'Etoile, France). Antimicrobial resistances were determined by disk diffusion susceptibility testing (Kirby-Bauer Method) according to CLSI [15]. Bacterial suspensions were prepared on sterile saline from each organism grown overnight. Turbidity was spectrophotometrically adjusted to the McFarland 0.5 standard. Dilutions were carried out with sterile saline to give an adjusted concentration of 1.5 × 10^7 colony-forming units/mL.
(§2) Three independent experiments were carried out. […] For reading, visual observations were carried out.

[2] = tested on: Escherichia coli (ATCC 25922); assay: Agar dilution MIC / MBC; assay type: cell-based; details: ATCC25922, E. coli; for MIC: agar dilution, 24 h; for MBC: value in parentheses
Experimental: as §1, §2

[3] = tested on: Pseudomonas aeruginosa (ATCC 27853); assay: Agar dilution MIC / MBC; assay type: cell-based; details: ATCC27853, P. aeruginosa; for MIC: agar dilution, 24 h; for MBC: value in parentheses
Experimental: as §1, §2

[4] = tested on: Staphylococcus aureus subsp. aureus (ATCC 6538); assay: Agar dilution MIC / MBC; assay type: cell-based; details: Staphylococcus aureus, ATCC6538, S. aureus; for MIC: agar dilution, 24 h; for MBC: value in parentheses, read-out: MBC
Experimental: as §1, §2

[5] = tested on: tetracycline, erythromycin, and polymyxin-resistant Proteus mirabilis (Pr2921); assay: Agar dilution MIC / MBC; assay type: cell-based; details: P. mirabilis; for MIC: agar dilution, 24 h; for MBC: value in parentheses
Experimental: as §1, §2

[6] = tested on: CCRF-CEM acute lymphoblastic leukemia cells; assay: MTT cell proliferation assay; assay type: cell-based, human
Experimental: (§3) The HEK293T non-tumor derived cell line and human isolated mononuclear cells (PBMC) were also tested. […] Cells were cultured at 37°C in a 5% CO2 humidified environment.
(§4) To investigate the cytotoxic potential of the isolated compounds, the MTT colorimetric assay was performed. […] The compounds were evaluated at a final maximum concentration of 100 μM. After 72 hours, 20 μL of 5 mg/mL solution of MTT in sterile PBS was added to each well and further incubated for 4 h. Then, the supernatants were removed and replaced with 100 μL DMSO to solubilize the resulting purple formazan crystals produced from metabolically viable cells. Absorbance was measured with an iMark micro-plate reader (Bio-Rad, USA) at 595 nm. Two wells were used for each concentration of the products assayed and three independent experiments were performed. […] The percentage of cytotoxic activity of the assayed compounds was determined by the following formula: cytotoxicity (%) = [1 − (optical density of treated cells − optical density DMSO)/(optical density of ethanol control cells − optical density DMSO)] × 100.
(§5) Data were analyzed by one-way analysis of variance (ANOVA) and means were compared using Bonferroni's comparison test, with p ≤ 0.05 considered as statistically significant.

[7] = tested on: K562 chronic myeloid leukemia cells; assay: MTT cell proliferation assay; assay type: cell-based, human; details: Homo sapiens, K562, MTT, 72 h, read-out: IC50 values and 95% confidence limits (lower, upper)
Experimental: as §3, §4, §5

[8] = tested on: CEM/ADR5000 cells (MDR, P-glycoprotein overexpressing); assay: cells; assay type: cell-based, human; details: for IC50: Homo sapiens, ADR5000, 72 h, CEM/ADR5000, MTT, 72 h, read-out: IC50 values and 95% confidence limits (lower, upper)
Experimental: as §3
(§6) The latter concentration was then used for maintenance of the cells. Lucena 1 were continuously cultured in the presence of 60 nM DOX. Both cell lines were grown in drug-free medium 3-4 days before the experiments. Overexpression of P-glycoprotein (P-gp) in both MDR variants was verified by flow cytometry using FITC-labeled mouse anti-human P-gp (BD Pharmingen, USA). Cells were subcultured twice a week from frozen stocks and used before the 20th passage. All experiments were performed with cells in the logarithmic growth phase with cell viabilities over 90%, determined by trypan blue staining.
as §4, §5

[9] = tested on: Lucena 1 cells (MDR, P-glycoprotein overexpressing); assay: cells; assay type: cell-based, human; details: for IC50: Homo sapiens, Lucena 1, 72 h, Lucena 1, MTT, 72 h, read-out: IC50 values and 95% confidence limits (lower, upper)
Experimental: as §3, §6, §4, §5

bacteria = assay: Antibacterial test of fractions during bioguided isolation; details: at 2 mg/mL
Experimental: MICs were determined by the agar dilution test according to CLSI [15] with some modifications [7]. Briefly, the plate count agar medium (PCA, Oxoid Ltd, UK) was added in duplicate to the suitable amount of fraction or pure compound previously dissolved in ethanol. […] After solidification of the agar in 6-well plates (Greiner Bio-One, Germany), 2 μL of each bacterial suspension was placed on the agar surface. Three independent experiments were carried out. […] For reading, visual observations were carried out. Nitro blue tetrazolium (NBT, Sigma-Aldrich CO, USA) solution in saline phosphate buffer (PBS) was applied on one spot for confirmation. Plates containing only the culture medium, with or without the addition of the dissolution solvent, were used as controls. Positive controls with commercial gentamicin sulfate or erythromycin dissolved in sterile water or ethanol, respectively, were simultaneously carried out.
The bactericidal effect was further studied from each concentration of product showing growth inhibition. […] At the end of this period, the minimum bactericidal concentration (MBC) values, defined as the lowest concentration with absence of turbidity, were recorded.

[10] = Homo sapiens; CCRF-CEM; MTT, 72 h; read-out: IC50 values and 95% confidence limits (lower, upper)

SMILES | MIC [1] [µg/mL] | MBC [1] [µg/mL] | MIC [2] [µg/mL] | MBC [2] [µg/mL] | MIC [3] [µg/mL] | MBC [3] [µg/mL] | MIC [4] [µg/mL] | MBC [4] [µg/mL] | MIC [5] [µg/mL] | MBC [5] [µg/mL] | IC50 [6, 10] [µM] | IC50 [7] [µM] | IC50 [8] [µM] | IC50 [9] [µM] | bactericidal activity (bacteria) | IC50 ([6]; Homo sapiens, CCRF-CEM, 72 h, CCRF-CEM; MTT, 72 h; read-out: IC50 values and 95% confidence limits (lower, upper)) [µM] | IC50 ([7]; K562, 72 h) [µM] | resistant index (RI) = IC50 resistant cells/IC50 sensitive cells ([8]; CEM/ADR5000 vs CCRF-CEM) | resistant index (RI) = IC50 resistant cells/IC50 sensitive cells [9]
O=C(/C=C/c1ccc(O)cc1)c1ccc(O)cc1O [Compound 2, isoliquiritigenin] | 500 (≈ 1950 µM) | > 500 | > 500 | > 500 | > 500 | > 500 | 250 (≈ 976 µM) | 500 (≈ 1950 µM) | > 500 | > 500 | 58.1 | > 100 | 51.9 | > 100 | – | – | – | – | –
O=C1C[C@@H](c2ccccc2)Oc2cc(O)cc(O)c21 [Compound 3, pinocembrin] | 62 (≈ 242 µM) | 125 (≈ 488 µM) | 500 (≈ 1950 µM) | 500 (≈ 1950 µM) | > 500 | > 500 | 15 (≈ 58.5 µM) | 62 (≈ 242 µM) | > 500 | > 500 | 58.9 | > 100 | 53.5 | > 100 | bactericidal effects | – | – | – | –
COc1cc(C2CC(=O)c3ccc(O)cc3O2)ccc1O (stereo not drawn) [Compound 5, 7,4′-dihydroxy-3′-methoxyflavanone] | 500 (≈ 1750 µM) | > 500 | > 500 | > 500 | > 500 | > 500 | 250 (≈ 873 µM) | > 500 | > 500 | > 500 | 24.8 | > 100 | 30.4 | > 100 | – | – | – | – | –
COc1cccc2c1C(=O)c1c(O)c3c(c(O)c1C2=O)C[C@@](O)(C(=O)CO)C[C@@H]3O[C@H]1C[C@H](N)[C@H](O)[C@H](C)O1 [Doxorubicin, Doxorubicin hydrochloride, reference compound] | – | – | – | – | – | – | – | – | – | – | – | – | > 69 | > 69 | – | 0.133 | 4.1 | ≥ 518.8 | ≥ 16.8
CC[C@H]1OC(=O)[C@H](C)[C@@H](O[C@H]2C[C@@](C)(OC)[C@@H](O)[C@H](C)O2)[C@H](C)[C@@H](O[C@@H]2O[C@H](C)C[C@H](N(C)C)[C@H]2O)[C@](C)(O)C[C@@H](C)C(=O)[C@H](C)[C@@H](O)[C@]1(C)O [Erythromycin, erythromycin, reference compound] | 1 (≈ 1.36 µM) | 30 (≈ 40.9 µM) | 125 (≈ 170 µM) | > 500 | 62 (≈ 84.5 µM) | 500 (≈ 681 µM) | 1 (≈ 1.36 µM) | 60 (≈ 81.8 µM) | 500 (≈ 681 µM) | > 500 | – | – | – | – | – | – | – | – | –
CNC(C)C1CCC(N)C(OC2C(N)CC(N)C(OC3OCC(C)(O)C(NC)C3O)C2O)O1 (stereo not drawn) [Gentamicin, Gentamicin sulfate, reference compound] | 8 | 10 | 4 | 8 | 4 | 4 | 8 | 10 | 10 | 10 | – | – | – | – | – | – | – | – | –
